tested on: not listed separately; experiment: Antiproliferative activity against human U87MG cells after 72 hrs; assay type: functional, cell-based, U-87MG ATCC; conditions: U-87 MG

| SMILES | IC50 [nM] |
| --- | --- |
| O=C(N[C@@H](COc1ccc2[nH]c(=O)[nH]c2c1)c1ccccc1)c1cccn(Cc2ccc(F)c(F)c2)c1=O | > 30000 |

target: T1, 3-phosphoinositide-dependent protein kinase 1 (Homo sapiens) (UniProt O15530); experiment: Inhibition of PDK1 (unknown origin) at 10 uM by FRET-based Z-lyte assay; conditions: not given
T1 sequence (whole entry): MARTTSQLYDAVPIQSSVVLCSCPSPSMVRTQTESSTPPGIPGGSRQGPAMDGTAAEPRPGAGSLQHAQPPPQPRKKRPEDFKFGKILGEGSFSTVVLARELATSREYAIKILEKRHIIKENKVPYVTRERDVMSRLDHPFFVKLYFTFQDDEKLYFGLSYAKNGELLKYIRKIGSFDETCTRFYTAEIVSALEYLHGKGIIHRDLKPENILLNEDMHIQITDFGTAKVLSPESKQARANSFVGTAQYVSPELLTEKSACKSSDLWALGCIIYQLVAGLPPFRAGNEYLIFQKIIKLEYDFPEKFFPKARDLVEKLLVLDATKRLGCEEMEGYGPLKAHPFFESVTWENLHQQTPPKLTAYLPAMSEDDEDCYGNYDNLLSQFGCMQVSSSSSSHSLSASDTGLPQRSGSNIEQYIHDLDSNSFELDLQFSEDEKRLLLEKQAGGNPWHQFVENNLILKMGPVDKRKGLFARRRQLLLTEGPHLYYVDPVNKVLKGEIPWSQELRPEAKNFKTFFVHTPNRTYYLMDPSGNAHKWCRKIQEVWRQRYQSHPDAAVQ

| SMILES | inhibition [%] |
| --- | --- |
| O=C1Cc2cc(NC(=O)[C@H](NC(=O)c3cccn(Cc4ccc(F)c(F)c4)c3=O)c3ccccc3)ccc2N1 | < 10 |
| O=C(CNC(=O)c1cccn(Cc2ccc(F)c(F)c2)c1=O)Nc1ccc2c(c1)CC(=O)N2 | 57 |
| O=C1Nc2ccc(NC(=O)[C@H](NC(=O)c3cccn(Cc4ccc(F)c(F)c4)c3=O)c3ccccc3)cc2/C1=C/c1cnc[nH]1 | 95 |
| O=C1Nc2ccc(NC(=O)[C@H](NC(=O)c3cccn(Cc4ccc(F)c(F)c4)c3=O)c3ccccc3)cc2/C1=C/c1ncc[nH]1 | 74 |
| O=C(CNC(=O)c1cccn(Cc2ccc(F)c(F)c2)c1=O)Nc1ccc2c(c1)/C(=C\c1ccc(F)cc1)C(=O)N2 | < 10 |
| O=C1Nc2ccc(NC(=O)c3cccn(Cc4ccc(F)c(F)c4)c3=O)cc2/C1=C/c1cnc[nH]1 | 64 |
| O=C1Nc2ccc(NC(=O)[C@H](NC(=O)c3cccn(Cc4ccc(F)c(F)c4)c3=O)c3ccccc3)cc2/C1=C/c1cccs1 | < 10 |
| O=C1Nc2ccc(NC(=O)c3cccn(Cc4ccc(F)c(F)c4)c3=O)cc2/C1=C\c1ccc(F)cc1 | < 10 |
| O=C1Nc2ccc(NC(=O)c3cccn(Cc4ccc(F)c(F)c4)c3=O)cc2/C1=C/c1cccs1 | < 10 |
| O=C(CNC(=O)c1cccn(Cc2ccc(F)c(F)c2)c1=O)Nc1ccc2c(c1)/C(=C/c1cccs1)C(=O)N2 | 19 |
| O=C1Nc2ccc(NC(=O)[C@H](NC(=O)c3cccn(Cc4ccc(F)c(F)c4)c3=O)c3ccccc3)cc2/C1=C\c1ccc(F)cc1 | < 10 |
| Cn1ccnc1/C=C1/C(=O)Nc2ccc(NC(=O)c3cccn(Cc4ccc(F)c(F)c4)c3=O)cc21 | < 10 |
| O=C1Cc2cc(NC(=O)c3cccn(Cc4ccc(F)c(F)c4)c3=O)ccc2N1 | < 10 |

target: 3-phosphoinositide-dependent protein kinase 1 (Homo sapiens, UniProt O15530); experiment: Inhibition of PDK1 (unknown origin) using AKT(Thr-308)-tide substrate; conditions: not given

| SMILES | AC50 [nM] |
| --- | --- |
| O=C(CC(c1ccccc1)C(C(=O)O)C(=O)O)c1ccc(C(F)(F)F)cc1 (stereo not given) | 2000 |

Reference: ChEMBL document CHEMBL3822377, “Locking PDK1 in DFG-out conformation through 2-oxo-indole containing molecules: Another tools to fight glioblastoma” (Eur J Med Chem, 2016)
